Measured values reported in patent publication US9556150B2, “Inhibitors of bruton's tyrosine kinase” (Hoffmann-La Roche Inc., priority 2013, dated 2017).
Counter-ions that a name gives are not always drawn.

What follows are compounds tested against Bruton's Tyrosine Kinase (BTK), inactivated state (Homo sapiens (Human), UniProt Q06187) (assay: Bruton's Tyrosine Kinase (BTK) Inhibition TR-FRET (Time Resolved FRET) competition assay). Conditions: TR-FRET competition with Kinase Tracer 178, BTK-Eu complex, 18-24 h at 14° C.
Bruton's Tyrosine Kinase (BTK), inactivated state, sequence (Q06187 whole entry): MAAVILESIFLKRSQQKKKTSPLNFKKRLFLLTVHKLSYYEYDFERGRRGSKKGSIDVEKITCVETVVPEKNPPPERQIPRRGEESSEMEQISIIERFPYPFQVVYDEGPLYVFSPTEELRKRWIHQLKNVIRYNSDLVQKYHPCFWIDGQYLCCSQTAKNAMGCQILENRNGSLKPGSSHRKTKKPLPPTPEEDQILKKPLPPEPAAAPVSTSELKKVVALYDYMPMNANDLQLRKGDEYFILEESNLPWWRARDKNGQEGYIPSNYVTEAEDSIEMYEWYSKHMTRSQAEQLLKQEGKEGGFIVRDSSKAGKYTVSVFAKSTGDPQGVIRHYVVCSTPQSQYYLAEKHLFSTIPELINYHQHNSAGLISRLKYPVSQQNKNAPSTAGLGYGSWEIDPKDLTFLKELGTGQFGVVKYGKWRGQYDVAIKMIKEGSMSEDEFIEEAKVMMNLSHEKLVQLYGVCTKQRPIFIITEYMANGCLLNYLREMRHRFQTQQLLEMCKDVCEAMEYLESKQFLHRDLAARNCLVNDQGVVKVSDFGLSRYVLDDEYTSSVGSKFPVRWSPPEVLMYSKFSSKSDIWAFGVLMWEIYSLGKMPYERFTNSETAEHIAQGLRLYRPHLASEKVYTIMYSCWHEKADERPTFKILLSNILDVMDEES
Type: binding
Method: Bruton's Tyrosine Kinase (BTK) Inhibition TR-FRET (Time Resolved FRET) Assay
This BTK competition assay measures compound potency (IC50) for the inactivated state of Bruton's Tyrosine Kinase using FRET (Förster/Fluorescence Resonance Energy Transfer) technology. The BTK-Eu complex was incubated on ice one hour prior to use at a starting concentration of 50 nM BTK-Bioease™: 10 nM Eu-streptavidin (Perkin-Elmer Catalog#AD0062). The assay buffer consisted of 20 mM HEPES (pH 7.15), 0.1 mM DTT, 10 mM MgCl2, 0.5 mg/ml BSA with 3% Kinase Stabilizer (Fremont Biosolutions, Catalog #STB-K02). After 1 h, the reaction mixture from above was diluted 10 fold in assay buffer to make 5 nM BTK: 1 nM Eu-Streptavidin complex (donor fluorophore). 18 μl of a mixture of 0.11 nM BTK-Eu and 0.11 nM Kinase Tracer 178 (Invitrogen, Catalog #PV5593,) with BTK-Eu alone as no negative control, was then dispensed into 384-well flat bottom plates (Greiner, 784076). Compounds to be tested in assay were prepared as 10× concentrations and serial dilution in half-log increments was performed in DMSO so as to generate 10 point curves. To initiate the FRET reaction, compounds prepared as 10× stock in DMSO was added to the plates and the plates were incubated 18-24 h at 14° C.
After the incubation the plates were read on a BMG Pherastar Fluorescent plate reader (or equivalent) and used to measure the emission energy from the europium donor fluorophore (620 nm emission) and the FRET (665 nm emission). The negative control well values were averaged to obtain the mean minimum. The positive “no inhibitor” control wells were averaged to obtain the mean maximum. Percent of maximal FRET was calculated using following equation: % max FRET=100×[(FSR cmpd−FSR mean min)/(FSR mean max−FSR mean min)]
where FSR=FRET Signal ratio. % Max FRET curves were plotted in Activity Base (Excel) and the IC50(%), hill slope, z′ and % CV were determined. The mean IC50 and standard deviation will be derived from duplicate curves (singlet inhibition curves from two independent dilutions) using Microsoft Excel.
Representative compound data for this assay are listed below in Table II.

| Structure (SMILES) | IC50 [nM] |
| --- | --- |
| CN1CCN(C(=O)c2ccc3[nH]c(C(=O)c4cnn(-c5ccc(Oc6cccc(C#N)c6)cc5Cl)c4N)cc3c2)CC1 [Example I-44, 3-(4-{5-Amino-4-[5-(4-methyl-piperazine-1-carbonyl)-1H-indole-2-carbonyl]-pyrazol-1-yl}-3-chloro-phenoxy)-benzonitrile hydrochloride salt] | 8 |
| CN(C)C(=O)c1ccccc1Oc1ccc(-n2ncc(C(=O)c3cc4cc(C(=O)O)ccc4[nH]3)c2N)c(Cl)c1 [Example I-59, 2-{5-Amino-1-[2-chloro-4-(2-dimethylcarbamoyl-phenoxy)-phenyl]-1H-pyrazole-4-carbonyl}-1H-indole-5-carboxylic acid] | 12 |
| Nc1c(C(=O)c2cc3cc(C(=O)N4CCOCC4)ccc3[nH]2)cnn1-c1ccc(Oc2cccc(F)c2F)cc1Br [Example I-22, {5-Amino-1-[2-bromo-4-(2,3-difluoro-phenoxy)-phenyl]-1H-pyrazol-4-yl}-[5-(morpholine-4-carbonyl)-1H-indol-2-yl]-methanone] | 1.3 |
| Cc1cc(Oc2ccccn2)ccc1-n1ncc(C(=O)c2cc3cc(C(=O)N4CCOCC4)ccc3[nH]2)c1N [Example I-11, {5-Amino-1-[2-methyl-4-(pyridin-2-yloxy)-phenyl]-1H-pyrazol-4-yl}-[5-(morpholine-4-carbonyl)-1H-indol-2-yl]-methanone] | 200 |
| Cc1cc(Oc2ccccc2)ncc1-n1ncc(C(=O)c2cc3cc(C(=O)N4CCOCC4)ccc3[nH]2)c1N [Example I-3, [5-Amino-1-(4-methyl-6-phenoxy-pyridin-3-yl)-1H-pyrazol-4-yl]-[5-(morpholine-4-carbonyl)-1H-indol-2-yl]-methanone] | 25 |
| Nc1c(C(=O)c2cc3cc(C(=O)N4CCOCC4)ccc3[nH]2)cnn1-c1ccc(Oc2ccccc2F)nc1 [Example I-9, {5-Amino-1-[6-(2-fluoro-phenoxy)-pyridin-3-yl]-1H-pyrazol-4-yl}-[5-(morpholine-4-carbonyl)-1H-indol-2-yl]-methanone] | 220 |
| Nc1c(C(=O)c2cc3cc(C(=O)N4CCOCC4)ccc3[nH]2)cnn1-c1ccc(Oc2ccccc2)cc1F [Example I-8, [5-Amino-1-(2-fluoro-4-phenoxy-phenyl)-1H-pyrazol-4-yl]-[5-(morpholine-4-carbonyl)-1H-indol-2-yl]-methanone] | 14.4 |
| Nc1c(C(=O)c2cc3cc(C(=O)N4CCOCC4)ccc3[nH]2)cnn1-c1ccc(Oc2ccccc2)cc1 [Example I-1, [5-Amino-1-(4-phenoxy-phenyl)-1H-pyrazol-4-yl]-[5-(morpholine-4-carbonyl)-1H-indol-2-yl]-methanone] | 6.8 |
| Cc1cc(Oc2cccc(Cl)c2)ccc1-n1ncc(C(=O)c2cc3cc(C(=O)N4CCOCC4)ccc3[nH]2)c1N [Example I-16, (2-{5-Amino-1-[4-(3-chloro-phenoxy)-2-methyl-phenyl]-1H-pyrazole-4-carbonyl}-1H-indol-5-yl)-morpholin-4-yl-methanone] | 3.6 |
| Cc1cc(Oc2ccccc2C#N)ccc1-n1ncc(C(=O)c2cc3cc(C(=O)N4CCOCC4)ccc3[nH]2)c1N [Example I-43, 2-(4-{5-Amino-4-[5-(morpholine-4-carbonyl)-1H-indole-2-carbonyl]-pyrazol-1-yl}-3-methyl-phenoxy)-benzonitrile] | 1.3 |
| COc1cc(Oc2cccc(F)c2F)ccc1-n1ncc(C(=O)c2cc3cc(C(=O)N4CCOCC4)ccc3[nH]2)c1N [Example I-28, {5-Amino-1-[4-(2,3-difluoro-phenoxy)-2-methoxy-phenyl]-1H-pyrazol-4-yl}-[5-(morpholine-4-carbonyl)-1H-indol-2-yl]-methanone] | 6.9 |
| Cc1cc(Oc2cccc(F)c2F)ccc1-n1ncc(C(=O)c2cc3cc(C(=O)O)ccc3[nH]2)c1N [Example I-26, 2-{5-Amino-1-[4-(2,3-difluoro-phenoxy)-2-methyl-phenyl]-1H-pyrazole-4-carbonyl}-1H-indole-5-carboxylic acid] | 14 |
| Cc1cc(Oc2ccccc2F)ccc1-n1ncc(C(=O)c2cc3cc(C(=O)N4CCOCC4)ccc3[nH]2)c1N [Example I-2, {5-Amino-1-[4-(2-fluoro-phenoxy)-2-methyl-phenyl]-1H-pyrazol-4-yl}-[5-(morpholine-4-carbonyl)-1H-indol-2-yl]-methanone] | 4.6 |
| Cc1cc(OCc2ccc(Cl)cc2)ccc1-n1ncc(C(=O)c2cc3cc(C(=O)N4CCOCC4)ccc3[nH]2)c1N [Example I-27, {5-Amino-1-[4-(4-chloro-benzyloxy)-2-methyl-phenyl]-1H-pyrazol-4-yl}-[5-(morpholine-4-carbonyl)-1H-indol-2-yl]-methanone] | 3.7 |
| Cc1cc(Oc2ccccc2)c(F)cc1-n1ncc(C(=O)c2cc3cc(C(=O)N4CCOCC4)ccc3[nH]2)c1N [Example I-6, {2-[5-Amino-1-(5-fluoro-2-methyl-4-phenoxy-phenyl)-1H-pyrazole-4-carbonyl]-1H-indol-5-yl}-morpholin-4-yl-methanone] | 43 |
| N#Cc1cccc(Oc2ccc(-n3ncc(C(=O)c4cc5cc(C(=O)O)ccc5[nH]4)c3N)c(Cl)c2)c1F [Example I-48, 2-{5-Amino-1-[2-chloro-4-(3-cyano-2-fluoro-phenoxy)-phenyl]-1H-pyrazole-4-carbonyl}-1H-indole-5-carboxylic acid] | 3.2 |
| Nc1c(C(=O)c2cc3cc(C(=O)N4CCOCC4)ccc3[nH]2)cnn1-c1ccc(Oc2cccc(F)c2F)nc1 [Example I-10, {5-Amino-1-[6-(2,3-difluoro-phenoxy)-pyridin-3-yl]-1H-pyrazol-4-yl}-[5-(morpholine-4-carbonyl)-1H-indol-2-yl]-methanone] | 180 |
| Cc1cc(Oc2cccc(F)c2F)cc(C)c1-n1ncc(C(=O)c2cc3cc(C(=O)N4CCOCC4)ccc3[nH]2)c1N [Example I-24, {5-Amino-1-[4-(2,3-difluoro-phenoxy)-2,6-dimethyl-phenyl]-1H-pyrazol-4-yl}-[5-(morpholine-4-carbonyl)-1H-indol-2-yl]-methanone] | 35 |
| N#Cc1cccc(Oc2ccc(-n3ncc(C(=O)c4cc5cc(Br)ccc5[nH]4)c3N)c(Cl)c2)c1 [Example I-33, 3-{4-[5-Amino-4-(5-bromo-1H-indole-2-carbonyl)-pyrazol-1-yl]-3-chloro-phenoxy}-benzonitrile] | 430 |
| CNC1CCN(C(=O)c2ccc3[nH]c(C(=O)c4cnn(-c5ccc(Oc6ccccc6C(=O)N(C)C)cc5Cl)c4N)cc3c2)C1 (stereo not drawn) [Example I-53, acetic acid salt] | 1.7 |
| Cc1cc(Oc2cccc(Br)c2)ccc1-n1ncc(C(=O)c2cc3cc(C(=O)N4CCOCC4)ccc3[nH]2)c1N [Example I-17, (2-{5-Amino-1-[4-(3-bromo-phenoxy)-2-methyl-phenyl]-1H-pyrazole-4-carbonyl}-1H-indol-5-yl)-morpholin-4-yl-methanone] | 3.5 |
| N#Cc1cccc(Oc2ccc(-n3ncc(C(=O)c4cc5cc(C(=O)N6CCOCC6)ccc5[nH]4)c3N)c(Cl)c2)c1 [Example I-30, 3-(4-{5-Amino-4-[5-(morpholine-4-carbonyl)-1H-indole-2-carbonyl]-pyrazol-1-yl}-3-chloro-phenoxy)-benzonitrile] | 6.1 |
| CN(C)C(=O)c1ccccc1Oc1ccc(-n2ncc(C(=O)c3cc4cc(C(=O)N5CCNCC5)ccc4[nH]3)c2N)c(Cl)c1 [Example I-51, 2-(4-{5-Amino-4-[5-(piperazine-1-carbonyl)-1H-indole-2-carbonyl]-pyrazol-1-yl}-3-chloro-phenoxy)-N,N-dimethyl-benzamide acetic acid salt] | 1.1 |
| Nc1c(C(=O)c2cc3cc(C(=O)N4CCOCC4)ccc3[nH]2)cnn1-c1ccc(Oc2ccccc2)c(F)c1 [Example I-4, [5-Amino-1-(3-fluoro-4-phenoxy-phenyl)-1H-pyrazol-4-yl]-[5-(morpholine-4-carbonyl)-1H-indol-2-yl]-methanone] | 12 |
| COC(=O)c1ccc2[nH]c(C(=O)c3cnn(-c4ccc(Oc5cccc(C#N)c5)cc4C)c3N)cc2c1 [Example I-31, 2-{5-Amino-1-[4-(3-cyano-phenoxy)-2-methyl-phenyl]-1H-pyrazole-4-carbonyl}-H-indole-5-carboxylic acid methyl ester] | 29 |
| NC(=O)c1cccc(Oc2ccc(-n3ncc(C(=O)c4cc5cc(C(=O)N6CCOCC6)ccc5[nH]4)c3N)c(Cl)c2)c1 [Example I-37, 3-(4-{5-Amino-4-[5-(morpholine-4-carbonyl)-1H-indole-2-carbonyl]-pyrazol-1-yl}-3-chloro-phenoxy)-benzamide] | 50 |
| Cc1cc(Oc2cccc(C#N)c2)ccc1-n1ncc(C(=O)c2cc3cc(C(=O)O)ccc3[nH]2)c1N [Example I-32, 2-{5-Amino-1-[4-(3-cyano-phenoxy)-2-methyl-phenyl]-1H-pyrazole-4-carbonyl}-H-indole-5-carboxylic acid] | 22 |
